Assay results published in US20090149463A1, “Therapeutic agents” (priority 2004, published 2009).

Assays:
[1] = biological target: T1, CB1 receptor (Homo sapiens, UniProt P21554); assay: [35S]-GTPγS binding assay on membranes from cells stably transfected with the CB1 gene, inhibition of CP55940 (EC80); type: biochemical; details: half maximal inhibition of GTPγS binding in presence of EC80 concentration of agonist CP55940; CB1-transfected cell membranes
T1 construct: expressed in transfected cells
Method: Compounds of the present invention are active against the receptor product of the CB1 gene. The affinity of the compounds of the invention for central cannabinoid receptors is demonstrable in methods described in Devane et al, Molecular Pharmacology, 1988, 34, 605 or those described in WO01/70700 or EP 656354. Alternatively the assay may be performed as follows.
10 μg of membranes prepared from cells stably transfected with the CB1 gene were suspended in 200 μl of 100 mM NaCl, 5 mM MgCl2, 1 mM EDTA, 50 mM HEPES (pH 7.4), 1 mM DTT, 0.1% BSA and 100 μM GDP. To this was added an EC80 concentration of agonist (CP55940), the required concentration of test compound and 0.1 μCi [^35S]-GTPγS. The reaction was allowed to proceed at 30° C. for 45 min. […] Filters were then covered with scintilant and counted for the amount of [^35S]-GTPγS retained by the filter.
Activity is measured in the absence of all ligands (minimum activity) or in the presence of an EC80 concentration of CP55940 (maximum activity). […] At various concentrations of novel ligand, activity is calculated as a percentage of the maximum activity and plotted. The data are fitted using the equation y=A+((B−A)/1+((C/x)UD)) and the IC50 value determined as the concentration required to give half maximal inhibition of GTPγS binding under the conditions used.

T1 sequence (P21554 whole entry): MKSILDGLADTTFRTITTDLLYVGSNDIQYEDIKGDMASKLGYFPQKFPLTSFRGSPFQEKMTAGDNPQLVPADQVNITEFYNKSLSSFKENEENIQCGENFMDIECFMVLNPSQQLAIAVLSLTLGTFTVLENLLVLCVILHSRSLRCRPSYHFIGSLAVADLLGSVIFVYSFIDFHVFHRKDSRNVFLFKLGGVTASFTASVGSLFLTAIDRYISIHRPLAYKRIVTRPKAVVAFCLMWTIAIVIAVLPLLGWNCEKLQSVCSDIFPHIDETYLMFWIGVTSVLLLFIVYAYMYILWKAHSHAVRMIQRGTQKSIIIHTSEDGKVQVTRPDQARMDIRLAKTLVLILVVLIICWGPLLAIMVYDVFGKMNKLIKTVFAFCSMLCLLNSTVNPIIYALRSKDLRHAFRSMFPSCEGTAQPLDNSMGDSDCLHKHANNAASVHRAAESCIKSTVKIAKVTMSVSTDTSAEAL

Row | melting point | IC50 [1] | Structure (SMILES)
1 | 190 °C | – | CCCS(=O)(=O)Oc1ccc(-c2c(C)c(C(=O)NN3CCCCC3)nn2-c2ccc(Cl)cc2Cl)cc1 [Example 1, Propane-1-sulfonic acid 4-[2-(2,4-dichlorophenyl)-4-methyl-5-(piperidin-1-ylcarbamoyl)2H-pyrazol-3-yl]-phenyl Ester]
2 | – | 6 nM | CCCS(=O)(=O)Oc1ccc(-c2c(C)c(C(=O)NC3(C(=O)OC)CCCC3)nn2-c2ccc(Cl)cc2Cl)cc1 [Example 10, Methyl 1-{[(1-(2,4-dichlorophenyl)-4-methyl-5-{4[(propylsulfonyl)oxy]phenyl}-1H-pyrazol-3-yl)carbonyl]amino}cyclopentanecarboxylate]
3 | – | 6.4 nM | CCCOC(=O)Oc1ccc(-c2c(C)c(C(=O)NN3CCCCC3)nn2-c2ccc(Cl)cc2Cl)cc1 [Example 11, Carbonic acid 4-[2-(2,4-dichlorophenyl)-4-methyl-5-(piperidine-1-ylcarbamoyl)-2H-pyrazol-3-yl]-phenyl Ester Propyl Ester]
